In ChEMBL document CHEMBL5696442, “Discovery of type II inhibitors of TGFβ-activated kinase 1 (TAK1) and mitogen-activated protein kinase kinase kinase kinase 2 (MAP4K2)” (J Med Chem, 2015):

How the values were obtained:
[1] = biological target: T1, Scaffold protein ILK (Homo sapiens) (UniProt Q13418); assay: Inhibition of ILK Lys1 labeling site in human A-375 cells at 5 uM by KiNativ Profiling analysis relative to control; format: cell-based
T1 sequence (whole entry): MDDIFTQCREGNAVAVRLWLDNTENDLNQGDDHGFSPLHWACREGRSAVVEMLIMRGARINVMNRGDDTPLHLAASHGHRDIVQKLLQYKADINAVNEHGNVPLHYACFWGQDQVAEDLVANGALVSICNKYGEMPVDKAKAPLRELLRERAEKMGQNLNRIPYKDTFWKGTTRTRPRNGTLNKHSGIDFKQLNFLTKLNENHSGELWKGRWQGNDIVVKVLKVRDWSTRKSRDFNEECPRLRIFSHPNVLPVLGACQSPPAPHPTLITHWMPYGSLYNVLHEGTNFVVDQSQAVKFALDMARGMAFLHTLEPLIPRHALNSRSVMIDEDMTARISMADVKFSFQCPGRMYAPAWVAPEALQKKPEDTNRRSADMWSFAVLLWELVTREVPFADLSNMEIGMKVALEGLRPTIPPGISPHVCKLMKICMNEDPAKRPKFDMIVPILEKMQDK

[2] = biological target: Activated CDC42 kinase 1 (Homo sapiens) (UniProt Q07912); assay: Inhibition of ACK Lys1 labeling site in human A-375 cells at 0.05 uM by KiNativ Profiling analysis relative to control; format: cell-based
[3] = biological target: Serine/threonine-protein kinase 25 (Homo sapiens) (UniProt O00506); assay: Inhibition of YSK1 ACT labeling site in human A-375 cells at 0.5 uM by KiNativ Profiling analysis relative to control; format: cell-based
[4] = biological target: Serine/threonine-protein kinase B-raf (Homo sapiens, UniProt P15056); assay: Inhibition of BRAF (unknown origin) Lys2 labeling site by KiNativ Profiling analysis
[5] = biological target: T2, Mitogen-activated protein kinase kinase kinase 3 (Homo sapiens) (UniProt Q99759); assay: Inhibition of MAP3K3 Lys1 labeling site in human A-375 cells at 5 uM by KiNativ Profiling analysis relative to control; format: cell-based
T2 sequence (whole entry): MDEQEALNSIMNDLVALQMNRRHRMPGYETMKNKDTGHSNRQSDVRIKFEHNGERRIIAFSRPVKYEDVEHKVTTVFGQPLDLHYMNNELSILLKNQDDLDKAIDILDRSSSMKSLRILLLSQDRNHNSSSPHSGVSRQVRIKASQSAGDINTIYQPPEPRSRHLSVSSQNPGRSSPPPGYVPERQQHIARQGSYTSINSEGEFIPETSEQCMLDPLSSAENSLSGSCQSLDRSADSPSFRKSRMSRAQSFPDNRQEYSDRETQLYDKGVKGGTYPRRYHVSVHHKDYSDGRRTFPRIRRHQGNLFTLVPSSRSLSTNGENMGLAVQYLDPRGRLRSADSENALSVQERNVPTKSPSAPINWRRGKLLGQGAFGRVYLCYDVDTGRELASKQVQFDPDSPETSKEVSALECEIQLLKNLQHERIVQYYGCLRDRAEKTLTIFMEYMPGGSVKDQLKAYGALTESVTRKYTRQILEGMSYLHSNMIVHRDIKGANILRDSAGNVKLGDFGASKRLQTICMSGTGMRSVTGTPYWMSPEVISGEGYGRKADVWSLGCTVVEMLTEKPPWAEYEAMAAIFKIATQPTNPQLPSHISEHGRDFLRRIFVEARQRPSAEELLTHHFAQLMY

[6] = biological target: T3, Serine/threonine-protein kinase Nek9 (Homo sapiens) (UniProt Q8TD19); assay: Inhibition of NEK9 Lys2 labeling site in human A-375 cells at 0.05 uM by KiNativ Profiling analysis relative to control; format: cell-based
T3 sequence (whole entry): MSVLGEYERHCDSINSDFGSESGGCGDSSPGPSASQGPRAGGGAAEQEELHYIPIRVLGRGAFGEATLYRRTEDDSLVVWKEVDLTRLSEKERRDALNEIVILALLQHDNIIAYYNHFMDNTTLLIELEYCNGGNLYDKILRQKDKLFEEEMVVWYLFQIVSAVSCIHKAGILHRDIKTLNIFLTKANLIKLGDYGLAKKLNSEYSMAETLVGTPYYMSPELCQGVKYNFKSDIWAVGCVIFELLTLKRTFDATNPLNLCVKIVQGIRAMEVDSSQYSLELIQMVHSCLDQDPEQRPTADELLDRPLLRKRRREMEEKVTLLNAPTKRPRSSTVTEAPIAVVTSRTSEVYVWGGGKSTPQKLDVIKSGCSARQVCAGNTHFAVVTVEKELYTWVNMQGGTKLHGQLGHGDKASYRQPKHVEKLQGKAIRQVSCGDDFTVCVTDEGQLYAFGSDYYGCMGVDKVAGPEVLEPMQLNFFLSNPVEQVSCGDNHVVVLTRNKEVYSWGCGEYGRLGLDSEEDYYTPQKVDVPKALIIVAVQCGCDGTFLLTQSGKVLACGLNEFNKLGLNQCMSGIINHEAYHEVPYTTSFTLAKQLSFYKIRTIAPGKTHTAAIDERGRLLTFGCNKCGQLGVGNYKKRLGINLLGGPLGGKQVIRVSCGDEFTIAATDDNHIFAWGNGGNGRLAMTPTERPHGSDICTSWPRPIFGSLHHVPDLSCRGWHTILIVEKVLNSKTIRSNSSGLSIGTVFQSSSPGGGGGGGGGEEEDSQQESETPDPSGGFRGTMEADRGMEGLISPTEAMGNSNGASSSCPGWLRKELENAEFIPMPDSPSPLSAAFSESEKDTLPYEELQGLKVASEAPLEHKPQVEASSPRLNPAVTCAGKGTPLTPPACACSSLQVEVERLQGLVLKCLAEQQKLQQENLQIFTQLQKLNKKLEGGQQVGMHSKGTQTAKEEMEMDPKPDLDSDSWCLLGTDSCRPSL

[7] = biological target: Serine/threonine-protein kinase 10 (Homo sapiens) (UniProt O94804); assay: Inhibition of LOK Lys1 labeling site harbouring NKETGALAAAKVIETK in human A-375 cells at 0.05 uM by KiNativ Profiling analysis relative to control; format: cell-based
[8] = biological target: T4, Mitogen-activated protein kinase 13 (Homo sapiens) (UniProt O15264); assay: Inhibition of p38delta Lys2 labeling site in human Huh-7 cell lysate at 1 uM by KiNativ Profiling analysis relative to control; format: subcellular
T4 sequence (whole entry): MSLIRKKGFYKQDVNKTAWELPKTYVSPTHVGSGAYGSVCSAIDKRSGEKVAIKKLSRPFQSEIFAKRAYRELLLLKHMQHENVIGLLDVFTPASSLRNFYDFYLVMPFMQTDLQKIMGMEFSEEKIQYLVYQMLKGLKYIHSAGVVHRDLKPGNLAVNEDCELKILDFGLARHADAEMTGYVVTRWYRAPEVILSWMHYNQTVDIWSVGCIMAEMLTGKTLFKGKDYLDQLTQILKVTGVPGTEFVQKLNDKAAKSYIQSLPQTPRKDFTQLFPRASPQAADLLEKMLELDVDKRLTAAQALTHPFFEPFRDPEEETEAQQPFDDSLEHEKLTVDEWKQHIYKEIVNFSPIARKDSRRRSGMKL

Chain of Serine/threonine-protein kinase 10 (Homo sapiens) (O94804 whole entry, looked up): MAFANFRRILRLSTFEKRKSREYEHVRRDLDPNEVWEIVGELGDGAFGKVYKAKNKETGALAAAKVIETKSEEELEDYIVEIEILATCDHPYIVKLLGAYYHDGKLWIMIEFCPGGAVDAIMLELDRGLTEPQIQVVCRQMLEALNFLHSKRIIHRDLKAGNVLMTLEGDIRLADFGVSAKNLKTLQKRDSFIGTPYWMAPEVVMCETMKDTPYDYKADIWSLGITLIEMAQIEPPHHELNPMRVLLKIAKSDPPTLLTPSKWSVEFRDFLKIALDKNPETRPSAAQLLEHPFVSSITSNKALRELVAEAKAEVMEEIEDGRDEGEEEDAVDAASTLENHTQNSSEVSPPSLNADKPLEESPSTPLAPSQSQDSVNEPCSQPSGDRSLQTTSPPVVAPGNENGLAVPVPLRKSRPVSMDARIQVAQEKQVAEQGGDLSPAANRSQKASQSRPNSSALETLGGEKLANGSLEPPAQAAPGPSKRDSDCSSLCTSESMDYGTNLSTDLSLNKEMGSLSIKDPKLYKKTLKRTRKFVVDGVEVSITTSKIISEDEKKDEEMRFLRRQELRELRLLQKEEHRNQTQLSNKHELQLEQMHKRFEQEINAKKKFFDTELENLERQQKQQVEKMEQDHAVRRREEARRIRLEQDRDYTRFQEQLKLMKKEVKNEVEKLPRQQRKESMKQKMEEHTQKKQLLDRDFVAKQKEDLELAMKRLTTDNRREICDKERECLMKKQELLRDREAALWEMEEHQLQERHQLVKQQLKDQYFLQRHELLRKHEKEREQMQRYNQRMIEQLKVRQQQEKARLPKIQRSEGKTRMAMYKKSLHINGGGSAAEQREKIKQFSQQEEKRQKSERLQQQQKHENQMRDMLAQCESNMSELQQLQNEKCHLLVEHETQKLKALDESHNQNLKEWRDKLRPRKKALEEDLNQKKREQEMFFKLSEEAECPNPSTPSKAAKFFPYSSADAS
Chain of Activated CDC42 kinase 1 (Homo sapiens) (Q07912 whole entry, looked up): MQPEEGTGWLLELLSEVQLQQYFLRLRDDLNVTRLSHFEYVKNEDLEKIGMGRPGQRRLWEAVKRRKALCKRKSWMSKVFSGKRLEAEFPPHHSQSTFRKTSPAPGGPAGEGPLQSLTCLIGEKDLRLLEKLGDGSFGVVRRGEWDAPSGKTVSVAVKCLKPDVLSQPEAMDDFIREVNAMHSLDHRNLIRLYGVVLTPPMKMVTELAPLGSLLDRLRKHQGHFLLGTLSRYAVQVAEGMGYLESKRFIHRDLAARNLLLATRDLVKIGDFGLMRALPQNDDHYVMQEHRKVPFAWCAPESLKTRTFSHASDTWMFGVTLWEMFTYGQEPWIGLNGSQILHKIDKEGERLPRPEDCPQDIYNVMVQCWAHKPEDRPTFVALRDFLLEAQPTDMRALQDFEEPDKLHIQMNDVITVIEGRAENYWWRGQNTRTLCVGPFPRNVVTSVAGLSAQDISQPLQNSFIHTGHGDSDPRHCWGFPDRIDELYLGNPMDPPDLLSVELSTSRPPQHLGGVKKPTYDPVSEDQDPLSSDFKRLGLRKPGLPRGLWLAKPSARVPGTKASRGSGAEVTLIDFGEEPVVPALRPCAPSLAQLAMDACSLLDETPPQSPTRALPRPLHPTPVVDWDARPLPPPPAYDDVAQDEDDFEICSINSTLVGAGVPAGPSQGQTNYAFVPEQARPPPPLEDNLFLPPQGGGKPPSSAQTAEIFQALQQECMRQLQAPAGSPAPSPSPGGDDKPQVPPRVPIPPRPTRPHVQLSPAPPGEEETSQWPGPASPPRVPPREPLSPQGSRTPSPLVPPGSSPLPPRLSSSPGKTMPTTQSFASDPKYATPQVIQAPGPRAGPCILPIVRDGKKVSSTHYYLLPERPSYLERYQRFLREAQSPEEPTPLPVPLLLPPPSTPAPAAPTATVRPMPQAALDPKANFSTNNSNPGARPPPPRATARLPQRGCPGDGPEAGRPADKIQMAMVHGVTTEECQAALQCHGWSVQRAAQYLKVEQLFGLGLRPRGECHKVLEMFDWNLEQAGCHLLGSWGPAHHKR
Chain of Serine/threonine-protein kinase 25 (Homo sapiens) (O00506 whole entry, looked up): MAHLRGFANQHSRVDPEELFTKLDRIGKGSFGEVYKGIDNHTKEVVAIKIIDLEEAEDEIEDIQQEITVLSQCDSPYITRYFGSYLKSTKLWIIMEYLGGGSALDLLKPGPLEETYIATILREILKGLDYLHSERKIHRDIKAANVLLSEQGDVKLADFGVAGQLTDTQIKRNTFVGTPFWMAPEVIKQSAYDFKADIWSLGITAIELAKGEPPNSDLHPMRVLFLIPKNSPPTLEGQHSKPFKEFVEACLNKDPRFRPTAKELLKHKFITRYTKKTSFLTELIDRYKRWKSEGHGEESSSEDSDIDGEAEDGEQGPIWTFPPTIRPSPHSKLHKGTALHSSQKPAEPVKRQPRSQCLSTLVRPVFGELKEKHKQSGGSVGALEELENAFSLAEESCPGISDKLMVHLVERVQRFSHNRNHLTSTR
Chain of Serine/threonine-protein kinase B-raf (P15056 whole entry): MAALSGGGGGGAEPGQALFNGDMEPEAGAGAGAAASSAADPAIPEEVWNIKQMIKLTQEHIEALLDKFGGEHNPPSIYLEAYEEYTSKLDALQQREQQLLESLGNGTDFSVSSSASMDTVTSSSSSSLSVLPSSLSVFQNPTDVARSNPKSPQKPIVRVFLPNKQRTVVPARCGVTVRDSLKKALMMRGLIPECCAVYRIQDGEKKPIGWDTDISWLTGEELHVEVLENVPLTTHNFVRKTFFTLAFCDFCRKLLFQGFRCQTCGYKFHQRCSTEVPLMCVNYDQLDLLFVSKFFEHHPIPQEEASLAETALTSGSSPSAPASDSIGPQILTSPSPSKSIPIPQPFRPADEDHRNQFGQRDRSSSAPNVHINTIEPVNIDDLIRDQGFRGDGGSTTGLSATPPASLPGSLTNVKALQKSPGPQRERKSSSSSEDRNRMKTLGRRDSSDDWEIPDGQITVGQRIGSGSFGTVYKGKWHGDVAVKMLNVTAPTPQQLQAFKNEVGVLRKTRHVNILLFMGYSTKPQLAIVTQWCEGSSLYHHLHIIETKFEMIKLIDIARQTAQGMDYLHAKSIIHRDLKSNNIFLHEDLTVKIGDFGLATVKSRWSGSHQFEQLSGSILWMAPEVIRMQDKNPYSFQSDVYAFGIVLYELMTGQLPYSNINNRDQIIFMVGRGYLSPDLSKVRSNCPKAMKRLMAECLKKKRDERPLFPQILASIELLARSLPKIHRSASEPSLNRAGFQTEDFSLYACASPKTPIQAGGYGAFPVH

Compound	inhibition [1]	inhibition [2]	inhibition [3]	IC50 [4]	inhibition [5]	inhibition [6]	inhibition [7]	inhibition [8]
CCN1CCN(Cc2ccc(NC(=O)c3ccc(C)c(/C=C/c4cnc5[nH]ccc5c4OC)c3)cc2C(F)(F)F)CC1	-8.7%	34.3%	18.3%	> 10 µM	80.4%	2%	34.5%	–
CCN1CCN(Cc2ccc(NC(=O)c3ccc(C)c(Oc4ccnc5[nH]ccc45)c3)cc2C(F)(F)F)CC1	-9.9%	15.6%	31.3%	> 10 µM	77.1%	4.2%	47.2%	–
CNc1cc(Oc2cc(C(=O)Nc3cc(-n4cnc(C)c4)cc(C(F)(F)F)c3)ccc2C)ncn1	–	–	–	–	–	–	–	5.5%
CNc1cc(Oc2cc(C(=O)Nc3cc(N4CCN(C)CC4)cc(C(F)(F)F)c3)ccc2C)ncn1	–	–	–	–	–	–	–	12.8%
